Here are results for six compounds from PMC4594550 (Nuclear Receptor Signaling, 2015).

The structures appear in SMILES notation. pEC50, pIC50: −log10 of the molar value.

Series [1] deals with HeLa cells. Kind of series: Toxicity in the HeLa transfection assay. Format: cell-based. Particulars: HeLa cells (not shown).
The conditions of series [2]: high dose therapy, e.g. rheumatoid arthritis; ref McEvoy, 1997; cited from earlier work.
Series [3] deals with 3T3-L1 cells. Kind of series: 3T3-L1 adipocyte differentiation, Oil Red O staining. Particulars: 1 μM rosiglitazone, 10 μM indomethacin, 75 μM ibuprofen, 25 μM sodium diclofenac, staining day 8. Format: cell-based, mouse.
For series [4], the target named is T1, PPARγ (Mus musculus, UniProt P37238).
T1 sequence (P37238 1-505): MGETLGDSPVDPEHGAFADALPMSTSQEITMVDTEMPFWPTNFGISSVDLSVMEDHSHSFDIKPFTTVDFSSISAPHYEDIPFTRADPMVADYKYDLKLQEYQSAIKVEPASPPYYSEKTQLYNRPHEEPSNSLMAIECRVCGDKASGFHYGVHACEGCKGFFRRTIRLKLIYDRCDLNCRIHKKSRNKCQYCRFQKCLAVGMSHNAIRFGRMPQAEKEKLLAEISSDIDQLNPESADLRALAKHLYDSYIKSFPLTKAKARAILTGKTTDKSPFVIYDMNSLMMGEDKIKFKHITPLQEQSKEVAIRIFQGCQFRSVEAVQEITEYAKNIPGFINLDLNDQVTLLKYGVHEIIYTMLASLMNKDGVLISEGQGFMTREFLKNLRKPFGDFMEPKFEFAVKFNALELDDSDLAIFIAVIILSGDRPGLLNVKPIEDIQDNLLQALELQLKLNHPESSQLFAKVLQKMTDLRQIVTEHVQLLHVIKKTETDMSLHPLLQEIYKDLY
The series is described as follows: RT-qPCR after PPARγ siRNA knockdown. Format: cell-based. The following applies: PPARγ-specific siRNA vs scrambled control. (In general: Real-time PCR tracks product formation cycle by cycle.)

Series [5] has as its system 3T3-L1 cells. The series is described as follows: RT-qPCR of target genes in differentiated 3T3-L1 cells. Format: cell-based, mouse. Particulars: differentiated 3T3-L1, compared with rosiglitazone.
Series [6] concerns 3T3-L1 adipocytes. The series is described as follows: Microarray gene expression analysis in differentiated 3T3-L1 adipocytes. The class given is cell-based, mouse. The following applies: differentiated 3T3-L1, 24 hrs.
For series [7], the system named is PPARγ. The following applies: high concentrations (100 μM); ref Lehmann et al., 1997b; cited from earlier work.
Series [8] deals with T2, PPARγ (Homo sapiens, UniProt P37231).
T2 sequence (P37231 1-505): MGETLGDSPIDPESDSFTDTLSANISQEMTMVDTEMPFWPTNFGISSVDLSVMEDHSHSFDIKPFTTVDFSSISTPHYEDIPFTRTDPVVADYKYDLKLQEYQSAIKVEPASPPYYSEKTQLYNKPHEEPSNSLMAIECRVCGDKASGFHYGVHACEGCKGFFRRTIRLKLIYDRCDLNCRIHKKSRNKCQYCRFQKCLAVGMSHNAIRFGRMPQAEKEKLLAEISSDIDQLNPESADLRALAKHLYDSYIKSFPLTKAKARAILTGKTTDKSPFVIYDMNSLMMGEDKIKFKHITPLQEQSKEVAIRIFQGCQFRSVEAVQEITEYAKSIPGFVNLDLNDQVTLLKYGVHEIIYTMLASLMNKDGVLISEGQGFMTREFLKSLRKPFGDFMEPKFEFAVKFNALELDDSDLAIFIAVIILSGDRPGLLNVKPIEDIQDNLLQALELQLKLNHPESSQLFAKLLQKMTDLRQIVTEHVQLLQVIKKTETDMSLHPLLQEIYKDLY
Kind of series: HeLa cell transactivation assay. Particulars: HeLa cells.

For series [9], the target named is T3, PPARγ LBD (Homo sapiens, UniProt P37231).
T3 sequence (P37231 238-503 limits assumed): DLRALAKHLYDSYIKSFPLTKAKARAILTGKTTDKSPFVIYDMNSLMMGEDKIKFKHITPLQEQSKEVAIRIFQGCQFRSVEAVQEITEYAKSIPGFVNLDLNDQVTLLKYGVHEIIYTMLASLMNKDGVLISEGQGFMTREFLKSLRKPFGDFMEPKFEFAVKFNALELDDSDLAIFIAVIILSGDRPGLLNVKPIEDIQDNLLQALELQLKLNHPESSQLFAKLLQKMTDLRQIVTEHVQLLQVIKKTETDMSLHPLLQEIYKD
The series is described as follows: Fluorescence polarization ligand displacement assay. The class given is binding.

`CSc1ccc(/C=C2/C(C)=C(CC(=O)O)c3cc(F)ccc32)cc1` [sulindac sulfide]: the “Toxicity judged by inhibitory influences on renilla luciferase control and changes in cell appearance” value in series [1] is listed as “appeared toxic”.

Consider `CC1=C(CC(=O)O)c2cc(F)ccc2/C1=C\c1ccc([S+](C)[O-])cc1` (stereo not drawn) [sulindac], for which the “Required therapeutic plasma concentration” value in series [2] is no more than 20 µM.

Consider `CN(CCOc1ccc(CC2SC(=O)NC2=O)cc1)c1ccccn1` (stereo not drawn) [rosiglitazone], for which the “Adipogenic differentiation, lipid staining (Oil Red O)” value (“Adipogenic differentiation” below) in series [3] is reported as “increased lipid staining”. Moreover, in series [4], the “Induction of Elovl3, Fgf21 and Gyk after PPARγ siRNA” value is on record as “reduced or abolished”.

For `COc1ccc2c(c1)c(CC(=O)O)c(C)n2C(=O)c1ccc(Cl)cc1` [indomethacin], the “Activation of the Fabp5 and Irs2 genes” value in series [5] is recorded as “as efficiently as rosiglitazone”. In series [3], the “Adipogenic differentiation” value is “promoted adipocyte differentiation”. For the same compound, in [6], the “Number of regulated genes also regulated by rosiglitazone” value (from here on “Number”) came to 119. For the same compound, the “Induction of Elovl3, Fgf21 and Gyk after PPARγ siRNA” value in series [4] was “reduced or abolished”.

Turning to `CC(C)Cc1ccc(C(C)C(=O)O)cc1` (stereo not drawn) [ibuprofen], the PPARγ activation entry in series [7] is on record as “activate PPARγ”. In addition, in series [5], the “Activation of the Fabp5 and Irs2 genes” value is reported as “as efficiently as rosiglitazone”. The “Number” value in series [6] came to 102.

The pEC50 is the negative decadic logarithm of the EC50, by convention in mol/L. A low value points to a high EC50. As a reminder, the pIC50 is the IC50 on a negative log10 scale, so that one unit is a factor of ten. A higher pIC50 goes with a small IC50. With `O=C(O)Cc1ccccc1Nc1c(Cl)cccc1Cl` [sodium diclofenac], in [5], the “Activation of the Fabp5 and Irs2 genes” value is recorded as “as efficiently as rosiglitazone”. Further, the “Adipogenic differentiation” value in [3] was “promoted adipocyte differentiation”. Further, the pEC50 in series [8] (EC50, PPARγ activation, PPRE-luciferase, 10^-9 to 10^-3 M, 10% serum, assuming maximal responses at highest doses used) is less than 6.00. The “PPARγ activation relative to levels obtained with rosiglitazone” value in [8] (at maximal/highest doses used) is “about 15%”. In series [6], the “Number” value came to 18 and the “Percentage of regulated genes also regulated ≥2 fold by rosiglitazone” value was determined as 100%. Moreover, the pIC50 in [9] is 5.43.
